Data reported in patent US11926619B2, “Certain pladienolide compounds and methods of use” (EISAI R&D MANAGEMENT CO., LTD., priority 2018, dated 2024).

Key:
[1] = test system: WiDr cells (colon cancer cells; wildtype SF3B1); experiment: Cell viability assay (CellTiter-Glo, 72 hr), WiDr cells; type: cell-based; settings: Homo sapiens; WiDr cells (wildtype SF3B1); read-out: WiDr GI50
Method in brief: (§1)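 Cells at 2000/well were exposed to 9 compound concentrations (0.1% DMSO) in duplicate or triplicate for 72 hr at 37 °C. ATP was read by CellTiter-Glo against a time-zero plate and DMSO control growth. Percent growth/viability was plotted against concentration to give Emax; negative values indicate lethality.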

[2] = test system: WiDr-R cells (colon cancer cells; chemically-induced SF3B1 R1074H mutant); experiment: Cell viability assay (CellTiter-Glo, 72 hr), resistant WiDr-R cells (counter-screen); type: cell-based; settings: WiDr-R cells (SF3B1 R1074H mutation, resistant); read-out: WiDr-R GI50
Method in brief: as §1

[3] = test system: Panc 05.04 cells (pancreatic cancer cells; Q699H and K700E mutations in SF3B1); experiment: Cell viability assay (CellTiter-Glo, 72 hr), Panc 05.04 cells; type: cell-based; settings: Panc 05.04 cells (mutant SF3B1); for Emax: maximum achievable response in tested dose range, negative value = cellular lethality, read-out: Panc 05.04 (mt SF3B1 cells) Emax (%); for GI50: read-out: Panc 05.04 (mt SF3B1 cells), GI50
Method in brief: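 Panc 05.04 cells treated 72 hr at 37 °C with 9 compound concentrations (0.1% DMSO), duplicate or triplicate. ATP read by CellTiter-Glo; growth inhibition/viability calculated against a time-zero plate and DMSO control growth. Emax is the maximal response over the tested range, negative values meaning lethality.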

SF3b complexes = target: T1, SF3b complexes (Homo sapiens, UniProt O75533+Q7RTV0); experiment: Scintillation proximity assay (SPA) with [3H]-labelled pladienolide probe; type: binding; settings: wt SF3B1, read-out: SPA (wt SF3B1 cells) IC50
T1 construct: endogenous in cells
Procedure: Batch immobilization of anti-SF3B1 antibody (MBL) to anti-mouse PVT SPA scintillation beads (PerkinElmer) was prepared as follows: for every 2.5 mg of nuclear extracts, 5 μg anti-SF3B1 antibody and 1.5 mg of beads were mixed in 150 μl PBS. The antibody-bead mixture was incubated for 30 min at RT and centrifuged at 18,000 g for 5 min. 150 μl PBS was used to resuspend every 1.5 mg antibody-bead mixture. The beads were suspended and added to the prepared nuclear extracts. The slurry was incubated for 2 h at 4° C. with gentle mixing. The beads were then collected by centrifuging at 18,000 g for 5 min, and washed twice with PBS+0.1% Triton X-100. After a final centrifugation step, every 1.5 mg of beads was suspended with 150 μl of PBS. The SF3b complexes were tested for [^3H]-labelled pladienolide probe binding ([^3H]-PB), synthesized as previously described (Kotake et al., 2007). 100 μL binding reactions were prepared with 50 μl bead slurry and by adding varying concentrations of PB or PB—OH, and after 30 min pre-incubation, 2.5 nM [^3H]—PB was added. The mixture was incubated for 30 min, and luminescence signals were read using a MicroBeta2 Plate Counter (PerkinElmer). Prism 6 (Graphpad) was used for non-linear regression curve fitting of the data.

| Structure (SMILES) | GI50 [1] [nM] | GI50 [2] [nM] | Emax [3] [%] | GI50 [3] [nM] | IC50 (SF3b complexes) [nM] |
| --- | --- | --- | --- | --- | --- |
| CC(=O)O[C@H]1/C=C/[C@H](C)[C@@H](/C(C)=C/C=C/[C@@H](C)COC(=O)N2CCCC2)OC(=O)C[C@H](O)CC[C@@]1(C)O | 4.83 | > 1000 | -94.1 | 20.1 | 2.75 |
| C/C(=C\C=C\[C@@H](C)CNC(=O)N1CCC[C@H]1CO)[C@H]1OC(=O)C[C@H](O)CC[C@@](C)(O)[C@@H](OC(=O)N2CCN(C3CCCCCC3)CC2)/C=C/[C@@H]1C | 95.9 | > 1000 | -85 | 77.3 | 40.8 |
| C/C(=C\C=C\[C@@H](C)COC(=O)N1CC=CC1)[C@H]1OC(=O)C[C@H](O)CC[C@@](C)(O)[C@@H](OC(=O)N2CCN(C3CCCCCC3)CC2)/C=C/[C@@H]1C | 22.2 | > 1000 | -89.8 | 3.68 | 3.68 |
| CC(=O)O[C@H]1/C=C/[C@H](C)[C@@H](/C(C)=C/C=C/[C@@H](C)c2ccccn2)OC(=O)C[C@H](O)CC[C@@]1(C)O | 231 | > 10000 | -16.1 | 538 | 45.1 |
| C/C(=C\C=C\[C@@H](C)COC(=O)N1CCCC1)[C@H]1OC(=O)C[C@@H](O)CC[C@](C)(O)[C@@H](OC(=O)N2CCN(C)CC2)/C=C/[C@@H]1C | 15.2 | > 1000 | -90.2 | 6.55 | 47.8 |
| CCCN(C)C(=O)OC[C@H](C)/C=C/C=C(\C)[C@H]1OC(=O)C[C@H](O)CC[C@@](C)(O)[C@@H](OC(C)=O)/C=C/[C@@H]1C | 39.1 | > 1000 | -91.8 | 42.5 | 6.22 |
| C/C(=C\C=C\[C@@H](C)COC(=O)N1CC[C@@H](N(C)C)C1)[C@H]1OC(=O)C[C@H](O)CC[C@@](C)(O)[C@@H](OC(=O)N2CCN(C3CCCCCC3)CC2)/C=C/[C@@H]1C | 30.2 | 3990 | -85.4 | 33 | 9.7 |
| C/C(=C\C=C\[C@@H](C)c1ccccn1)[C@H]1OC(=O)C[C@H](O)CC[C@@](C)(O)[C@@H](OC(=O)N2CCCN(C3CCCCCC3)CC2)/C=C/[C@@H]1C | 74.9 | > 1000 | -12.7 | 104 | 7.32 |
| C/C(=C\C=C\[C@@H](C)CCC(=O)N1CCCC1)[C@H]1OC(=O)C[C@H](O)CC[C@@](C)(O)[C@@H](OC(=O)N2CCN(C3CCCCCC3)CC2)/C=C/[C@@H]1C | 12.7 | > 1000 | -86.9 | 3.25 | 5.11 |
| CC(=O)O[C@H]1/C=C/[C@H](C)[C@@H](/C(C)=C/C=C/[C@@H](C)COC(=O)N2CC[C@H](O)C2)OC(=O)C[C@H](O)CC[C@@]1(C)O | 51.5 | > 10000 | -89.6 | 45.1 | 96.5 |
| C/C(=C\C=C\[C@@H](C)c1ccccn1)[C@H]1OC(=O)CCCCC[C@@H](OC(=O)N(C)C)/C=C/[C@@H]1C | 1060 | 7760 | 48.2 | 5790 | > 1200 |
| C/C(=C\C=C\[C@@H](C)c1ccccn1)[C@H]1OC(=O)C[C@H](O)CC[C@@](C)(O)[C@@H](OC(=O)N2CCN(C3CCCCC3)CC2)/C=C/[C@@H]1C | 21.2 | > 1000 | -94.3 | 21.4 | 3.32 |
| C/C(=C\C=C\[C@@H](C)COC(=O)N1CCCC1)[C@H]1OC(=O)CCCCC[C@@H](NC(=O)N2CCN(C)CC2)/C=C/[C@@H]1C | 18.5 | > 1000 | -93.6 | 19 | 14.4 |
| C/C(=C\C=C\[C@@H](C)COC(=O)N1CCCC12COC2)[C@H]1OC(=O)C[C@H](O)CC[C@@](C)(O)[C@@H](OC(=O)N2CCN(C)CC2)/C=C/[C@@H]1C | 47.2 | > 1000 | 90.7 | 31.5 | 9.56 |
| C/C(=C\C=C\[C@@H](C)c1ncccn1)[C@H]1OC(=O)C[C@H](O)CC[C@@](C)(O)[C@@H](OC(=O)N2CCN(C3CCCCCC3)CC2)/C=C/[C@@H]1C | 33.6 | > 1000 | -92.9 | 29.5 | 8.1 |
| C/C(=C\C=C\[C@@H](C)c1ccccn1)[C@H]1OC(=O)C[C@H](O)CC[C@@](C)(O)[C@@H](OC(=O)N2CC[N+](C)([O-])CC2)/C=C/[C@@H]1C | – | – | -81.2 | 45.4 | 5.89 |
| COC[C@H]1CCCN1C(=O)OC[C@H](C)/C=C/C=C(\C)[C@H]1OC(=O)C[C@H](O)CC[C@@](C)(O)[C@@H](OC(C)=O)/C=C/[C@@H]1C | 71.6 | > 1000 | -90.9 | 76.5 | 60.7 |
| C/C(=C\C=C\[C@@H](C)COC(=O)N1[C@H](C)CC[C@H]1C)[C@H]1OC(=O)C[C@H](O)CC[C@@](C)(O)[C@@H](OC(=O)N2CCN(C)CC2)/C=C/[C@@H]1C | 1.03 | > 1000 | -68.1 | 1.12 | 2.77 |
| C/C(=C\C=C\[C@@H](C)c1cccnc1)[C@H]1OC(=O)C[C@H](O)CC[C@@](C)(O)[C@@H](OC(=O)N2CCN(C3CCCCCC3)CC2)/C=C/[C@@H]1C | 13.2 | > 1000 | -95.6 | 11 | 2.34 |
| C/C(=C\C=C\[C@@H](C)COC(=O)N1CCCC1(C)C)[C@H]1OC(=O)C[C@H](O)CC[C@@](C)(O)[C@@H](OC(=O)N2CCN(C)CC2)/C=C/[C@@H]1C | 9.61 | > 1000 | -93.7 | 7.82 | 3.73 |
| C/C(=C\C=C\[C@@H](C)c1ccccn1)[C@H]1OC(=O)C[C@H](O)CC[C@@](C)(O)[C@@H](OC(=O)N2CCNCC2)/C=C/[C@@H]1C | 16 | > 1000 | -76.5 | 39.5 | 26.9 |
| C/C(=C\C=C\[C@H](C)c1nccc(C)n1)[C@H]1OC(=O)C[C@H](O)CC[C@@](C)(O)[C@@H](OC(=O)N2CCN(C3CCCCCC3)CC2)/C=C/[C@@H]1C | 125 | > 1000 | -76.7 | 101 | 9.7 |
| C/C(=C\C=C\[C@@H](C)CNC(=O)C1CCCC1)[C@H]1OC(=O)C[C@H](O)CC[C@@](C)(O)[C@@H](OC(=O)N2CCN(C3CCCCCC3)CC2)/C=C/[C@@H]1C | 73 | > 1000 | -88.4 | 53.3 | 11.2 |
| CC[C@H](O)[C@@H](C)[C@H]1O[C@@H]1C[C@H](C)/C=C/C=C(\C)[C@H]1OC(=O)C[C@H](O)CC[C@@](C)(OC(C)=O)[C@@H](OC(=O)N2CCNCC2)/C=C/[C@@H]1C | – | – | -47.1 | 2.05 | 2.12 |
| C/C(=C\C=C\C(C)c1cccnc1)[C@H]1OC(=O)C[C@H](O)CC[C@@](C)(O)[C@@H](OC(=O)N2CCC(N3CCC(F)(F)CC3)CC2)/C=C/[C@@H]1C (some centres unmarked) | – | – | -2.9 | 94.8 | 30.9 |
| C\C(=C/C=C/C=C/[C@@H](C)c1ccccn1)C1OC(=O)C[C@H](O)CC[C@@](C)(O)[C@@H](OC(=O)N2CCN(C3CCCCCC3)CC2)/C=C/[C@@H]1C (some centres unmarked) | – | – | 11 | 720 | 120 |
| CCO[C@]1(C)CC[C@@H](O)CC(=O)O[C@H](/C(C)=C/C=C/[C@](C)(O)C[C@H]2O[C@@H]2[C@H](C)[C@@H](O)CC)[C@@H](C)/C=C/[C@@H]1OC(=O)N1CCNCC1 | – | – | -75.4 | 1.76 | 9.23 |
| CC[C@H](O)[C@@H](C)[C@H]1O[C@@H]1C[C@@](C)(O)/C=C/C=C(\C)[C@H]1OC(=O)C[C@H](O)CC[C@@](C)(OC(=O)N2CCNCC2)[C@@H](OC(C)=O)/C=C/[C@@H]1C | – | – | -74.2 | 23.5 | 5.92 |
| CC[C@H](O)[C@@H](C)[C@H]1O[C@@H]1C[C@H](C)/C=C/C=C(\C)[C@H]1OC(=O)C[C@H](O)CC[C@@](C)(OC(=O)N2CCNCC2)[C@@H](OC(C)=O)/C=C/[C@@H]1C | – | – | -78.9 | 0.86 | 2.08 |
| C/C(=C\C=C\[C@@H](C)c1ccccn1)[C@H]1OC(=O)C[C@H](O)CC[C@@](C)(O)[C@@H](O)/C=C/[C@@H]1C | – | – | 49.5 | 3980 | > 1200 |
